pIC50: −log10 of the molar value.
Tests used:
BMMC [1] = experiment: Anti-osteoclastogenic activity in C57/BL6 mouse BMMC cells assessed as inhibition of RANKL-induced osteoclast differentiation at 1 uM incubated for 5 to 7 days in presence of M-CSF by TRAP staining based microscopic analysis relative to control; format: functional; conditions: time 5-7 day
BMMC [2] = experiment: Cytotoxicity against C57/BL6 mouse BMMC cells assessed as reduction in cell viability at 10 uM incubated for 24 hrs by CCK-8 assay; format: toxicity, cell-based
BMMC [3] = experiment: Anti-osteoclastogenic activity in C57/BL6 mouse BMMC cells assessed as inhibition of RANKL-induced osteoclast differentiation at 0.1 uM incubated for 5 to 7 days in presence of M-CSF by TRAP staining based microscopic analysis relative to control; format: functional; conditions: time 5-7 day
BMMC [4] = experiment: Anti-osteoclastogenic activity in C57/BL6 mouse BMMC cells assessed as inhibition of RANKL-induced osteoclast differentiation at 0.01 uM incubated for 5 to 7 days in presence of M-CSF by TRAP staining based microscopic analysis relative to control; format: functional; conditions: time 5-7 day
BMMC [5] = experiment: Anti-osteoclastogenic activity in C57/BL6 mouse BMMC cells assessed as inhibition of RANKL-induced osteoclast differentiation at 5 uM incubated for 5 to 7 days in presence of M-CSF by TRAP staining based microscopic analysis relative to control; format: functional; conditions: time 5-7 day
BMMC [6] = experiment: Anti-osteoclastogenic activity in C57/BL6 mouse BMMC cells assessed as inhibition of RANKL-induced osteoclast differentiation incubated for 5 to 7 days in presence of M-CSF by TRAP staining based microscopic analysis relative to control; format: functional, cell-based

| Structure (SMILES) | inhibition at 1 µM (BMMC [1]) [%] | Activity (BMMC [2]) | inhibition at 0.1 µM (BMMC [3]) [%] | inhibition at 0.01 µM (BMMC [4]) [%] | inhibition at 5 µM (BMMC [5]) [%] | pIC50 (BMMC [6]) |
| --- | --- | --- | --- | --- | --- | --- |
| CCOc1ncc2c(n1)C(C)(C)[C@@H]1CC[C@]3(C)[C@H](C[C@@H](O)[C@@H]4[C@@H]([C@@](C)(O)CCC=C(C)C)CC[C@]43C)[C@@]1(C)C2 | 94.1 | 86.9% | 45.7 |  |  |  |
| COc1ncc2c(n1)C(C)(C)[C@@H]1CC[C@]3(C)[C@H](C[C@@H](O)[C@@H]4[C@@H]([C@@](C)(O)CCC=C(C)C)CC[C@]43C)[C@@]1(C)C2 | 93.7 | >= 100% | 52.6 |  |  |  |
| Cc1ncc2c(n1)C(C)(C)[C@@H]1CC[C@]3(C)[C@H](C[C@@H](O)[C@@H]4[C@@H]([C@@](C)(O)CCCC(C)C)CC[C@]43C)[C@@]1(C)C2 |  | >= 100% | 96 | 9.2 |  |  |
| CCc1ncc2c(n1)C(C)(C)[C@@H]1CC[C@]3(C)[C@H](C[C@@H](O)[C@@H]4[C@@H]([C@@](C)(O)CCC=C(C)C)CC[C@]43C)[C@@]1(C)C2 | 100 | >= 100% | 90.4 |  |  |  |
| CC(C)=CCC[C@](C)(O)[C@H]1CC[C@]2(C)[C@@H]1/C(=N/O)C[C@@H]1[C@@]3(C)Cc4cnc(C)nc4C(C)(C)[C@@H]3CC[C@]12C |  | >= 100% | 61.1 | 0 |  |  |
| CC(C)=CCC[C@](C)(O)[C@H]1CC[C@]2(C)[C@@H]1[C@H](O)C[C@@H]1[C@@]3(C)Cc4nonc4C(C)(C)[C@@H]3CC[C@]12C | 18.8 | >= 100% |  |  | 64.2 |  |
| CC(C)=CCC[C@](C)(O)[C@H]1CC[C@]2(C)[C@@H]1[C@H](O)C[C@@H]1[C@@]3(C)Cc4cnc(-c5ccccc5)nc4C(C)(C)[C@@H]3CC[C@]12C | 45.5 | >= 100% | 0 |  |  |  |
| CC(C)=CCC[C@](C)(O)[C@H]1CC[C@]2(C)[C@@H]1[C@H](O)C[C@@H]1[C@@]3(C)Cc4cn[nH]c4C(C)(C)[C@@H]3CC[C@]12C | 41.2 | >= 100% |  |  | 84.8 |  |
| CC(C)=CCC[C@](C)(O)[C@H]1CC[C@]2(C)[C@@H]1[C@H](O)C[C@@H]1[C@@]3(C)Cc4cnc(C)nc4C(C)(C)[C@@H]3CC[C@]12C | 100 | >= 100% | 96.8 | 34.5 |  |  |
| CC(C)=CCC[C@](C)(O)[C@H]1CC[C@]2(C)[C@@H]1C(=O)C[C@@H]1[C@@]3(C)Cc4cnc(C)nc4C(C)(C)[C@@H]3CC[C@]12C |  | >= 100% | 75.8 | 8.68 |  |  |
| CC(=O)O[C@@H]1C[C@@H]2[C@@]3(C)Cc4cnc(C)nc4C(C)(C)[C@@H]3CC[C@@]2(C)[C@]2(C)CC[C@H]([C@@](C)(O)CCC=C(C)C)[C@@H]12 |  | >= 100% | 62.2 | 6.68 |  |  |
| CC(C)=CCC[C@](C)(O)[C@H]1CC[C@]2(C)[C@@H]1[C@H](O)C[C@@H]1[C@@]3(C)Cc4nccnc4C(C)(C)[C@@H]3CC[C@]12C | 43.7 | >= 100% |  |  | 100 |  |
| CC(C)=CCC[C@](C)(O)[C@H]1CC[C@]2(C)[C@@H]1[C@H](O)C[C@@H]1[C@@]3(C)Cc4cnc(N)nc4C(C)(C)[C@@H]3CC[C@]12C | 100 | >= 100% | 51.2 |  |  |  |
| CC(C)=CCC[C@](C)(O)[C@H]1CC[C@]2(C)[C@@H]1[C@H](O)C[C@@H]1[C@@]3(C)Cc4cnn(-c5ccccc5)c4C(C)(C)[C@@H]3CC[C@]12C | 0 | >= 100% |  |  | 12.9 |  |
| CC(C)=CCC[C@](C)(O)[C@H]1CC[C@]2(C)[C@@H]1[C@@H](O)C[C@@H]1[C@@]3(C)Cc4cnc(C)nc4C(C)(C)[C@@H]3CC[C@]12C |  | >= 100% | 84.4 | 0 |  |  |
| CC(C)=CCC[C@](C)(O)[C@H]1CC[C@]2(C)[C@@H]1[C@H](O)C[C@@H]1[C@@]3(C)Cc4cncnc4C(C)(C)[C@@H]3CC[C@]12C | 95.3 | >= 100% | 51.9 |  | 100 |  |
| CC(C)=CCC[C@](C)(O)[C@H]1CC[C@]2(C)[C@@H]1[C@H](O)C[C@@H]1[C@@]3(C)CC[C@H](O)C(C)(C)[C@@H]3CC[C@]12C | 10.2 | >= 100% |  |  | 63.9 | 4.93 |
| CC(C)=CC/C=C(\C)[C@H]1CC[C@]2(C)[C@@H]1[C@H](O)C[C@@H]1[C@@]3(C)Cc4cnc(C)nc4C(C)(C)[C@@H]3CC[C@]12C |  | >= 100% | 96.8 | 27.4 |  |  |
| CC(C)=CCC[C@](C)(O)[C@H]1CC[C@]2(C)[C@@H]1[C@H](O)C[C@@H]1[C@@]3(C)Cc4cnoc4C(C)(C)[C@@H]3CC[C@]12C | 3.2 | >= 100% |  |  | 71.5 |  |

Source: ChEMBL document CHEMBL5321281, “Synthesis and Biological Evaluation of Heterocyclic Ring-Fused 20(S)-Protopanaxadiol Derivatives as Potent Antiosteoporosis Agents” (J Med Chem, 2023)
